Literature values in patent publication US10716757B2, “Liposomal formulation for the oral hepatic delivery of drugs” (Universität Heidelberg, priority 2015, dated 2020).

Key:
[1] = film method followed by extrusion, reference [17]
[2] = Myrcludex B per se, no liposomes

Q: With C[C@@H](O)[C@@H]1NC(=O)[C@H](CCCCN)NC(=O)[C@@H](Cc2c[nH]c3ccccc23)NC(=O)[C@H](Cc2ccccc2)NC(=O)[C@@H](NC(=O)[C@H](N)Cc2ccccc2)CSSC[C@@H](C(=O)N[C@H](CO)[C@@H](C)O)NC1=O [octreotide] as the molecule, how does the encapsulation efficiency [1] read?
A: 13.0 % (m/m)

Q: For Myr-HBVpreS/2-48 [Myrcludex B], which oral bioavailability [2] is on record?
A: < 1%
